Test results: article PMC11242993, “Evaluation of the Therapeutic Potential of Sulfonyl Urea Derivatives as Soluble Epoxide Hydrolase (sEH) Inhibitors” (Molecules, 2024)
“Also recorded” adds a separate entry of the source.

Tests used:
mice = assay: LPS-induced acute lung injury (ALI) model; assay type: in vivo; settings: 10 mg/kg i.p.
Protocol: LPS-induced acute lung injury induced by a single oropharyngeal instillation of lipopolysaccharide (LPS) (50 µg/mouse) in 16-week-old mice as described previously. Briefly, LPS (L4391, MilliporeSigma, Burlington, MA, USA) was dissolved in sterile saline and administered at 50 µg/mouse in 40 µL after anesthesia induced by ketamine/xylazine. The mice were studied 24 h after LPS or saline instillation.
BALF was collected from anesthetized mice by lavaging lungs two times with 0.8 mL Hanks’ balanced salt solution without calcium and magnesium (HBSS) (Sigma-Aldrich, St. Louis, MI, USA). Supernatants were collected as BALF for further analyses.
The number of cells in the BALF was estimated using an automated cell counter, the Countess II FL cell counter (Thermo Fisher Scientific Inc., Waltham, MA, USA).
Albumin levels were measured by the Mouse Albumin Elisa Assay kit (Cat # E99-134), which was obtained from Bethyl Laboratories. BALF samples from the LPS group were diluted at a 1:2000 ratio.
Total protein in BALF samples was measured using the Pierce BCA protein assay kit (Cat # 23225) as detailed in the product manual (Thermo Fisher Scientific).
The right middle lobe was immediately placed in an RNA later solution and stored at −80 °C until the RNA extraction procedure. RNA extraction was performed using RNeasy Mini Kits from Qiagen (Valencia, CA, USA). One microgram of total RNA was reverse transcribed to cDNA using an iScript cDNA synthesis kit (Bio-Rad, Hercules, CA, USA). Expression of the target genes was quantified using gene-specific primers and PowerSYBRGreen master mix (Thermo Fisher Scientific) in a QuantStudio 3 Real-Time PCR instrument (Thermo Fisher Scientific). Predesigned mouse IL-6 (QT00098875), TNF-α (QT00104006), IL-1β (QT01048355), CXCL1 (QT00115647), CCL2 (QT00167832), CXCL3 (QT00151599) and CXCL9 (QT00097062) primers were purchased from Qiagen (Valencia, CA, USA). Fold changes in gene expression relative to the housekeeping gene TATA-Box Binding Protein (Tbp, QT00198443) were determined. Gene expression values were calculated based on the […] method.

mouse recombinant sEH = biological target: T1, mouse recombinant sEH (Mus musculus, UniProt P34914); assay: Fluorescence-based sEH activity assay (PHOME substrate), mouse enzyme; assay type: biochemical; settings: dose-dependent assay; read-out: Mouse sEH Inhibition IC50
T1 sequence (P34914 1-554): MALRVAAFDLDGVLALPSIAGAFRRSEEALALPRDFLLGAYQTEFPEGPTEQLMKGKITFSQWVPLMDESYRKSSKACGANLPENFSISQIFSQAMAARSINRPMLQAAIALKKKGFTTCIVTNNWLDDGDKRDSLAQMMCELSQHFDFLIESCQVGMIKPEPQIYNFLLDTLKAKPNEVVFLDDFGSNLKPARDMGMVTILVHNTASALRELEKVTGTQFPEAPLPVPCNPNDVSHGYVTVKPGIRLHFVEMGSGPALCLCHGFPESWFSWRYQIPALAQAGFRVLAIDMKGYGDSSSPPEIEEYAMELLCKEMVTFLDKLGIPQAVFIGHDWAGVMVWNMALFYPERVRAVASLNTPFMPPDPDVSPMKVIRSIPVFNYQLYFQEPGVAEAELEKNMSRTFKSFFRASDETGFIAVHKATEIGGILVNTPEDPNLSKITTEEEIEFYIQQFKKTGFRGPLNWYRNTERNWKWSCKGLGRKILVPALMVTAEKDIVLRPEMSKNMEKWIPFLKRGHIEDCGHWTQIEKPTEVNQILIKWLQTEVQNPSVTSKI
Protocol: A fluorescence-based sEH activity assay provided a convenient method for screening human epoxide hydrolase inhibitors. The assay utilized (3-Phenyl-oxiranyl)-acetic acid cyano-(6-methoxy-naphthalen-2-yl)-methyl ester (PHOME) as a substrate. […] The inhibitory function of the compounds on sEH activity was tested as detailed in the product manual from Cayman Chemical. Briefly, 3 mL sEH assay buffer (10×) was diluted with 27 mL HPLC-grade water. This final assay buffer, 25 mM bis-tris (pH 7.0), was used in the assay and for the dilution of the soluble epoxide hydrolase (sEH) enzyme. Amounts of 12 μL each of human and mouse recombinant sEH were thawed on ice. Prior to assaying, 588 μL cold assay buffer was added directly to the enzyme vial. An amount of 190 μL assay buffer and 5 μL solvent (40% DMSO in assay buffer) were added to the background wells. In the 100% initial activity wells, 185 μL assay buffer, 5 μL sEH, and 5 μL solvent were added. In inhibitor wells, 185 μL assay buffer, 5 μL solution of the synthesized compounds, and 5 μL of recombinant enzyme solution were added. To start the reaction, 5 μL of PHOME was added to each well at a final concentration of 0.25 mM. The microwell plate was shaken carefully for 10 s and covered with a plate cover.
Average fluorescence (AF) of the background wells and 100% initial activity in the wells and of each of the inhibitors were determined. The background AF was subtracted from the 100% initial activity and inhibitor AFs. The % sEH activity is calculated as (inhbitited AF/% 100 initial activity) × 100.
Multiple concentrations of the inhibitors were tested followed by plotting of the percent activity as a function of inhibitor concentration to determine the IC50 values.

[1] = In vivo pharmacokinetic experiment; set-up: species or system C57BL/6J mice; settings: mice, 10 mg/kg; for Cmax (in words): oral
Protocol: Twenty 8–9-week-old male C57BL/6J mice were taken for the in vivo pharmacokinetic experiment. They were divided into four groups, each containing five mice. Each group was used for either oral or intraperitoneal administration of compound 4f or 15a. Both the compounds were reconstituted in 5% DMSO, 5% TWEEN 80 in saline water (pH = 7.4). The mice were orally and intraperitoneally administered compounds at 10 mg/kg dose. Blood samples were collected at 0, 0.5, 1, 2, 4, 6, and 24 h after administration of the compound, and serum was isolated with the compound. For the pharmacokinetic study, 10 μL of serum samples from mice were extracted with a 2:1 mixture of LC/MS-grade chloroform and methanol, followed by intermittent vortexing, and then centrifuged at 4000 rpm for 10 min at 4 °C. Thereafter, the supernatant was collected and analyzed by LC−MS/MS to measure the concentrations of compounds 4f and 15a in the serum.

Compound | effect on LPS-induced increase in total protein in BALF (mice) | number of cells in bronchoalveolar lavage (BAL) (mice) | LPS-induced lung gene expression of interleukin 1B (IL-1B) (mice; qPCR) | lung gene expression of CCL-2 (mice; qPCR) | lung gene expression of CXCL1 (mice; qPCR) | LPS-induced lung gene expression of interleukin 6 (IL-6) (mice; qPCR, 10 mg/kg) | IC50 (mouse recombinant sEH) [µM] | half-life ([1]; male, C57BL/6J, mouse, serum, other: oral and intraperitoneal, oral and intraperitoneal administration, read-out: plasma half-life) [h] | Cmax (in words) [1] | LPS-induced lung gene expression of interleukin 6 (IL-6) (mice; qPCR)
O=C(NC12CC3CC(CC(C3)C1)C2)NS(=O)(=O)c1ccc(OC(F)(F)F)cc1 [Compound 4f] | neither AUDA nor novel sEH inhibitors’ (4f and 4l) effect | similarly attenuated the number of cells in BAL | attenuated | more pronounced in reducing IL-6 and CCL-2 expressions | similarly attenuated | attenuated; also recorded: more pronounced in reducing IL-6 and CCL-2 expressions | 0.29 | < 2 | better than that of 15a | –
O=C(NC12CC3CC(CC(C3)C1)C2)NS(=O)(=O)c1ccc2ccccc2c1 [Compound 4l] | neither AUDA nor novel sEH inhibitors’ (4f and 4l) effect | – | had no effect on reducing these | – | – | – | 0.19 | – | promising Cmax value | had no effect on reducing these
